Assay results taken from patent US9247759B2, “Identification of human T2R receptors that respond to bitter compounds that elicit the bitter taste in compositions, and the use thereof in assays to identify compounds that inhibit (block) bitter taste in compositions and use thereof” (SENOMYX, INC., priority 2007, dated 2016).
Like-named read-outs stand apart in the source and are kept apart here.

Assays:
[1] = target: hT2R3 (Homo sapiens (Human), UniProt Q9NYW6); assay: hT2R panel inhibition, transient HEK293 G16g44, agonist Chloroquine pH6.5 50 μM; format: cell-based; settings: HEK293, compound at 25 μM; receptor activated to EC80 with the corresponding agonist; read-out: screening result against bitter receptor 3
Summary of the method: (§1)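 Each human T2R transiently transfected into HEK293 cells stably expressing G16g44; functional receptor assays run with the listed bitter agonist at EC80 concentration. Inhibition recorded as reduction of agonist-induced receptor activity in presence of Compound C.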

[2] = target: hT2R5 (Homo sapiens (Human), UniProt Q9NYW4); assay: hT2R panel inhibition, transient HEK293 G16g44, agonist Picoline 10 mM; format: cell-based; settings: HEK293, compound at 25 μM; receptor activated to EC80 with the corresponding agonist; read-out: screening result against bitter receptor 5
Summary of the method: as §1

[3] = target: hT2R7 (Homo sapiens (Human), UniProt Q9NYW3); assay: hT2R panel inhibition, transient HEK293 G16g44, agonist Chloroquine pH6.5 10 mM; format: cell-based; settings: HEK293, compound at 25 μM; receptor activated to EC80 with the corresponding agonist; read-out: screening result against bitter receptor 7
Summary of the method: as §1

[4] = target: hT2R9 (Homo sapiens (Human), UniProt Q9NYW1); assay: hT2R panel inhibition, transient HEK293 G16g44, agonist Ofloxacin 1 mM; format: cell-based; settings: HEK293, compound at 25 μM; receptor activated to EC80 with the corresponding agonist; read-out: screening result against bitter receptor 9
Method: Specifically, in order to evaluate the inhibitory selectivity of the Compound C compound, this compound was tested against 22 human T2Rs which were deorphaned by Senomyx. These receptors and the bitter ligands that activate these human T2Rs are reported in earlier patent applications which are incorporated by reference herein. These 22 human T2Rs are hT2R1, 3, 4, 5, 7, 8, 9, 10, 13, 14, 16, 44, 51, 54, 55, 61, 63, 64, 65, 67, 71 and 75. The amino acid and nucleic acid sequences of all of these T2Rs may be found in these earlier patent applications. These human T2Rs were each individually transiently transfected into HEK293 cells that stably express the promiscuous G protein G16g44 and functional assays were effected using these receptors as disclosed in these same patent applications. […] The ligands were used at EC80 concentration levels. The list of bitter ligands utilized and the tested ligand concentrations are contained in Table 5 of this example.
Relating to the foregoing, FIG. 5 contains experimental results wherein Compound C was tested with different agonist compounds. The inhibition activity is represented by the reduction of receptor activity in the presence of Compound C. […] These 13 hT2Rs are hT2R3, 7, 10, 14, 16, 44, 51, 55, 61, 63, 64, 65, and 71.

[5] = target: hT2R10 (Homo sapiens (Human), UniProt Q9NYW0); assay: hT2R panel inhibition, transient HEK293 G16g44, agonist Strychnine 50 μM; format: cell-based; settings: HEK293, read-out: screening result against bitter receptor 10, compound at 25 μM; receptor activated to EC80 with the corresponding agonist
[6] = target: T1, hT2R14 (Homo sapiens (Human), UniProt Q9NYV8); assay: hT2R panel inhibition, transient HEK293 G16g44, agonist Aristolochic Acid 2 μM; format: cell-based; settings: HEK293, compound at 25 μM; receptor activated to EC80 with the corresponding agonist; read-out: screening result against bitter receptor 14
Summary of the method: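 Each hT2R was transiently transfected into HEK293 cells stably expressing G16g44 and assayed functionally for inhibition of agonist response. Agonists were applied at EC80: andrographolide at 0.5 mM for hT2R8 and aristolochic acid at 2 μM for hT2R14.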

[7] = target: hT2R16 (Homo sapiens (Human), UniProt Q9NYV7); assay: hT2R panel inhibition, transient HEK293 G16g44, agonist Salicin 1 mM; format: cell-based; settings: HEK293, compound at 25 μM; receptor activated to EC80 with the corresponding agonist; read-out: screening result against bitter receptor 16
Summary of the method: as §1

[8] = tested on: hT2R44; assay: hT2R panel inhibition, transient HEK293 G16g44, agonist Denatonium 0.5 μM; format: cell-based, human; settings: compound at 25 μM; receptor activated to EC80 with the corresponding agonist
Summary of the method: as §1

[9] = target: hT2R51 (Homo sapiens (Human), UniProt P59533); assay: hT2R panel inhibition, transient HEK293 G16g44, agonist Prop 2.5 μM; format: cell-based; settings: HEK293, compound at 25 μM; receptor activated to EC80 with the corresponding agonist; read-out: screening result against bitter receptor 51
Summary of the method: as §1

[10] = tested on: hT2R54; assay: hT2R panel inhibition, transient HEK293 G16g44, agonist Ranitidine 5 mM; format: cell-based, human; settings: compound at 25 μM; receptor activated to EC80 with the corresponding agonist
Summary of the method: as §1

[11] = tested on: hT2R55; assay: hT2R panel inhibition, transient HEK293 G16g44, agonist Cinchonine 150 μM; format: cell-based, human; settings: compound at 25 μM; receptor activated to EC80 with the corresponding agonist
Summary of the method: as §1

[12] = target: hT2R61 (Homo sapiens (Human), UniProt P59537); assay: hT2R panel inhibition, transient HEK293 G16g44, agonist Aristolochic Acid 25 nM; format: cell-based; settings: HEK293, compound at 25 μM; receptor activated to EC80 with the corresponding agonist; read-out: screening result against bitter receptor 61
Summary of the method: as §1

[13] = tested on: hT2R63; assay: hT2R panel inhibition, transient HEK293 G16g44, agonist Caffeine 1 mM or Andrographolide 100 μM; format: cell-based, human; settings: compound at 25 μM; receptor activated to EC80 with the corresponding agonist
Summary of the method: as §1

[14] = target: hT2R64 (Homo sapiens (Human), UniProt P59538); assay: hT2R panel inhibition, transient HEK293 G16g44, agonist Aristolochic Acid 1 μM; format: cell-based; settings: HEK293, compound at 25 μM; receptor activated to EC80 with the corresponding agonist; read-out: screening result against bitter receptor 64
Summary of the method: as §1

[15] = tested on: hT2R65; assay: hT2R panel inhibition, transient HEK293 G16g44, agonist Oleuropein 1 mM; format: cell-based, human; settings: compound at 25 μM; receptor activated to EC80 with the corresponding agonist
Summary of the method: as §1

[16] = target: hT2R71 (Homo sapiens (Human), UniProt P59536); assay: hT2R panel inhibition, transient HEK293 G16g44, agonist Picric Acid 10 μM; format: cell-based; settings: HEK293, compound at 25 μM; receptor activated to EC80 with the corresponding agonist; read-out: screening result against bitter receptor 71
Summary of the method: as §1

[17] = target: T1, hT2R14; assay: hT2R14 antagonist high-throughput FLIPR assay, stable cell line with G16g44, agonist aristolochic acid; format: cell-based
Summary of the method: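 HEK293 cells stably expressing hT2R14 with chimeric G16g44 were stimulated with aristolochic acid (3 μM), giving 70-80% of maximal receptor activity. Test compounds were added together with the agonist, and antagonism was read as fluorescent calcium signal on FLIPR.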

[18] = tested on: hT2R67; assay: hT2R panel inhibition, transient HEK293 G16g44, agonist Andrographolide 5 μM; format: cell-based, human; settings: compound at 25 μM; receptor activated to EC80 with the corresponding agonist
Summary of the method: as §1

[19] = target: hT2R75 (Homo sapiens (Human), UniProt P59540); assay: hT2R panel inhibition, transient HEK293 G16g44, agonist Strychnine 1 μM; format: cell-based; settings: HEK293, read-out: screening result against bitter receptor 75, compound at 25 μM; receptor activated to EC80 with the corresponding agonist
[20] = read-out: IC50 on hT2R14 bitter receptor

Chain of hT2R71 (P59536 whole entry): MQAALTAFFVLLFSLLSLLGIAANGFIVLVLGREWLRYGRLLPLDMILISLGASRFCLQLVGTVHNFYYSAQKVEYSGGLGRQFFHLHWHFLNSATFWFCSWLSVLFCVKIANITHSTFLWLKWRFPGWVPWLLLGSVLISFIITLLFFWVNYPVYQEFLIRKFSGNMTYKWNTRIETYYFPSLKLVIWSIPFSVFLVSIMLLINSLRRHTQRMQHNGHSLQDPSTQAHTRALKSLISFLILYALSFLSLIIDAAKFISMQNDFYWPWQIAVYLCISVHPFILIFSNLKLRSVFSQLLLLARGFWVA
Chain of hT2R9 (Q9NYW1 whole entry): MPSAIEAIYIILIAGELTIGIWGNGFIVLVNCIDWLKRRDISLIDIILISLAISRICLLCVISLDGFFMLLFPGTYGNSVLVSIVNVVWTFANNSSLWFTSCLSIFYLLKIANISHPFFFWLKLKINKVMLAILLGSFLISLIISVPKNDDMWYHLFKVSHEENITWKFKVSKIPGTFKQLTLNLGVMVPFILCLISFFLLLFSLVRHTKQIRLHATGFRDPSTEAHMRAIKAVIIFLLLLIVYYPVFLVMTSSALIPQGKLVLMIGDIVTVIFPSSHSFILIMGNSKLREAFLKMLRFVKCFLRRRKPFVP
Chain of hT2R16 (Q9NYV7 whole entry): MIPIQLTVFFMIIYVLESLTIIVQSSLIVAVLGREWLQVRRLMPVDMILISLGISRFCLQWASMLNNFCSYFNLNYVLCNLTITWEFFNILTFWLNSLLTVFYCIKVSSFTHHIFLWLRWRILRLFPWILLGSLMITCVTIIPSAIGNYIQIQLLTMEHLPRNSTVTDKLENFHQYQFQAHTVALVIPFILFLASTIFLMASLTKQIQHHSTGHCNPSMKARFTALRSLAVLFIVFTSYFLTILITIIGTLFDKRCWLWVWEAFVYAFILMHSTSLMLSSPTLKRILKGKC
Chain of hT2R51 (P59533 whole entry): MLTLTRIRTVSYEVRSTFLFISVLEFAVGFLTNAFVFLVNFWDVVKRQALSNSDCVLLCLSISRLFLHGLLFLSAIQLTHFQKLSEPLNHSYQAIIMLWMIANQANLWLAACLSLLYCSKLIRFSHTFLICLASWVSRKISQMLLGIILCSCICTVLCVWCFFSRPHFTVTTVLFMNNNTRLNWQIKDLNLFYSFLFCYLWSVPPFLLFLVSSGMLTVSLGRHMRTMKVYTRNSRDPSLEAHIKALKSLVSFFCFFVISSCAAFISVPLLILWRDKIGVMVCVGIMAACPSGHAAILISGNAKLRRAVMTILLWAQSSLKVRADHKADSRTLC
Chain of hT2R3 (Q9NYW6 whole entry): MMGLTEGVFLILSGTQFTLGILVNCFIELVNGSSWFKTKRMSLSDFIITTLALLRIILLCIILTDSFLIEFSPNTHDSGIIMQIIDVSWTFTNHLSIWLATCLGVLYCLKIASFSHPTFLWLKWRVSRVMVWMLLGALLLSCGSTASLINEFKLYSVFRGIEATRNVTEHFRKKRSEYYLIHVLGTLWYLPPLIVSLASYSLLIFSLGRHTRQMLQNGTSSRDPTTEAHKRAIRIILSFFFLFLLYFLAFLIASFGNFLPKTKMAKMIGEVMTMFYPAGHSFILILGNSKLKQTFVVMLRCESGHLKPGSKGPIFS
Chain of hT2R64 (P59538 whole entry): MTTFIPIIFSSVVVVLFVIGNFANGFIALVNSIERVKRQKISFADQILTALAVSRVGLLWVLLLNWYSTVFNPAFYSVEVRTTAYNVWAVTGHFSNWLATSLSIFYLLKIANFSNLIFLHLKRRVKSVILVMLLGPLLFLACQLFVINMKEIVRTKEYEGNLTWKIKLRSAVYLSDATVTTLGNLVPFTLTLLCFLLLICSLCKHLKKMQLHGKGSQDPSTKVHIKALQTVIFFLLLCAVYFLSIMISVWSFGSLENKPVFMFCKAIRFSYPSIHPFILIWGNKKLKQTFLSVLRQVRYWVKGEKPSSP
Chain of hT2R7 (Q9NYW3 whole entry): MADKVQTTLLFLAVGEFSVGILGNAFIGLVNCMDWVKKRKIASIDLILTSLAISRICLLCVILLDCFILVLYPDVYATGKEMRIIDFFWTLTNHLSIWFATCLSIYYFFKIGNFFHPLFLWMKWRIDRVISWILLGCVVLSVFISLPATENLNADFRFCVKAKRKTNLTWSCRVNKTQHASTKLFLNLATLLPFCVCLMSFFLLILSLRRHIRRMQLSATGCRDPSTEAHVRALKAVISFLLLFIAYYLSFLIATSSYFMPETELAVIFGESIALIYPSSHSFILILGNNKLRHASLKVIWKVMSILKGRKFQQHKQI
Chain of hT2R5 (Q9NYW4 whole entry): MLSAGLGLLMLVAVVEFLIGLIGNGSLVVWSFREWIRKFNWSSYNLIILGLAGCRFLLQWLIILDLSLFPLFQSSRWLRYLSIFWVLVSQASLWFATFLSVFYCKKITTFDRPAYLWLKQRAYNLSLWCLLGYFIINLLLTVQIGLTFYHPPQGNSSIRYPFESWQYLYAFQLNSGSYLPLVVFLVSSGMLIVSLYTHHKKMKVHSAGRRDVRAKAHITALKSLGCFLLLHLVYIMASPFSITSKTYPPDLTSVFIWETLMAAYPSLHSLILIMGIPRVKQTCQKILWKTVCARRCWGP
T1 sequence (Q9NYV8 whole entry): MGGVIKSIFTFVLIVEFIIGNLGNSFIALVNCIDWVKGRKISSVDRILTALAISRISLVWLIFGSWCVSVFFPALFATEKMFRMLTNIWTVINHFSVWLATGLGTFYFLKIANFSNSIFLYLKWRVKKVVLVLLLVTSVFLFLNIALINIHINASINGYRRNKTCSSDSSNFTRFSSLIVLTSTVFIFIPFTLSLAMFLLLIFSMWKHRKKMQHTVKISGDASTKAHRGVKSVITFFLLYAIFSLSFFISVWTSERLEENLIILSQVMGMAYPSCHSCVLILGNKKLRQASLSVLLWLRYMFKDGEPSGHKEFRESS
Chain of hT2R10 (Q9NYW0 whole entry): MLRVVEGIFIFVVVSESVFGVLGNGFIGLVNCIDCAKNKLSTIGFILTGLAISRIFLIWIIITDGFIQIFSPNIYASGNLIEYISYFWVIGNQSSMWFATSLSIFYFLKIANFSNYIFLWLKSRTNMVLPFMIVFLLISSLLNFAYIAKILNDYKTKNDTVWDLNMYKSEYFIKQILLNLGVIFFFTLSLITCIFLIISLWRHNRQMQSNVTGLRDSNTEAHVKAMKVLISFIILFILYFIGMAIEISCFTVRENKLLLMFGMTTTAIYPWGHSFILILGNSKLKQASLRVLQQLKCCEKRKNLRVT
Chain of hT2R61 (P59537 whole entry): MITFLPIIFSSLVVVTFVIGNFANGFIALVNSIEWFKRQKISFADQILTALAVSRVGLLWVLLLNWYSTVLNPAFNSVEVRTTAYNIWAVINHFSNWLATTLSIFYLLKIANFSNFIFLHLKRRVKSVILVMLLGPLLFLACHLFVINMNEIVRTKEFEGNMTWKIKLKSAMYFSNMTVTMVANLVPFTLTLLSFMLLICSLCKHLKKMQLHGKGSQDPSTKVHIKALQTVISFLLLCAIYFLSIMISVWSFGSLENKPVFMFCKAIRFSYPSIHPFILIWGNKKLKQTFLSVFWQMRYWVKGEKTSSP
Chain of hT2R75 (P59540 whole entry): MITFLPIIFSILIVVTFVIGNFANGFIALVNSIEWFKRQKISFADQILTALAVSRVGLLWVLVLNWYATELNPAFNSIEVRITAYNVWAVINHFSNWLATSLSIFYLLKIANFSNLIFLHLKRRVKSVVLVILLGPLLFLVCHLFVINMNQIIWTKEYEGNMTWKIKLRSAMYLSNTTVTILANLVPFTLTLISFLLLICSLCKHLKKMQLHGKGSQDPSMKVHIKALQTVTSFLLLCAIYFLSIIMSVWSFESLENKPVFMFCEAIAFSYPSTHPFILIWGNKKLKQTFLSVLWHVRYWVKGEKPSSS

| SMILES | inhibition at 25 µM [1] [%] | inhibition at 25 µM [2] [%] | inhibition at 25 µM [3] [%] | inhibition at 25 µM [4] [%] | inhibition at 25 µM [5] [%] | inhibition at 25 µM [6] [%] | inhibition at 25 µM [7] [%] | screening result against bitter receptor 44 [8] | inhibition at 25 µM [9] [%] | screening result against bitter receptor 54 [10] | screening result against bitter receptor 55 [11] | inhibition at 25 µM [12] [%] | screening result against bitter receptor 63 [13] | inhibition at 25 µM [14] [%] | screening result against bitter receptor 65 [15] | inhibition at 25 µM [16] [%] | IC50 [17, 20] [µM] | screening result against bitter receptor 67 [18] | IC50 ([17]; Table C, read-out: hT2R14 IC50) [µM] | inhibition at 25 µM [19] [%] |
| --- | --- | --- | --- | --- | --- | --- | --- | --- | --- | --- | --- | --- | --- | --- | --- | --- | --- | --- | --- | --- |
| COc1ccc(CN(Cc2ccccc2)S(=O)(=O)c2ccc(C(=O)O)cc2)c(OC)c1 [Example 5-13, 4-(N-benzyl-N-(2,4-dimethoxybenzyl)sulfamoyl)benzoic acid] | 40 to 60 | 20 to 40 | 20 to 40 | 20 to 40 | 20 to 40 | > 80 | 20 to 40 | +++ (60% to 80% inhibition = +++) | 20 to 40 | +++ (60% to 80% inhibition = +++) | ++++ (80% or greater inhibition = ++++) | > 80 | ++++ (80% or greater inhibition = ++++) | 60 to 80 | + (20% to 40% inhibition = +) | 40 to 60 |  |  |  |  |
| COc1cc(OC)c(CN(Cc2ccccc2)S(=O)(=O)c2ccc(C(=O)O)cc2)c(OC)c1 [Example 5-15, 4-(N-benzyl-N-(2,4,6-trimethoxybenzyl)sulfamoyl)benzoic acid] | 40 to 60 | 20 to 40 | 20 to 40 | 20 to 40 | 40 to 60 | > 80 | 20 to 40 |  |  |  |  | > 80 |  | 60 to 80 | + (20% to 40% inhibition = +) | 60 to 80 | 10.8 |  |  |  |
| COc1ccc(CN(Cc2ccccc2F)S(=O)(=O)c2ccc(C(=O)O)cc2)cc1 [Example 5-31, 4-(N-(2-fluorobenzyl)-N-(4-methoxybenzyl)sulfamoyl)benzoic acid] | 20 to 40 |  |  | 20 to 40 |  |  |  | + (20% to 40% inhibition = +) |  |  |  |  |  |  |  |  |  |  |  |  |
| COc1ccc(CN(Cc2cccc(OC)c2)S(=O)(=O)c2ccc(C(=O)O)cc2)cc1 [Example 5-34, 4-(N-(3-methoxybenzyl)-N-(4-methoxybenzyl)sulfamoyl)-benzoic acid] | 40 to 60 | 40 to 60 | 20 to 40 | 20 to 40 | 40 to 60 | > 80 | 20 to 40 | ++ (40% to 60% inhibition = ++) | 20 to 40 | +++ (60% to 80% inhibition = +++) | ++++ (80% or greater inhibition = ++++) | > 80 | ++++ (80% or greater inhibition = ++++) | 60 to 80 | ++ (40% to 60% inhibition = ++) | 60 to 80 | 2.46 | + (20% to 40% inhibition = +) |  |  |
| COc1ccc(CN(Cc2cc(OC)cc(OC)c2)S(=O)(=O)c2ccc(C(=O)O)cc2)cc1 [Example 5-67, 4-(N-(3,5-dimethoxybenzyl)-N-(4-methoxybenzyl)sulfamoyl)benzoic acid] | 40 to 60 | 20 to 40 |  | 20 to 40 | 40 to 60 | 60 to 80 | 20 to 40 | ++ (40% to 60% inhibition = ++) |  | ++ (40% to 60% inhibition = ++) | ++++ (80% or greater inhibition = ++++) | 40 to 60 | ++++ (80% or greater inhibition = ++++) | 60 to 80 | + (20% to 40% inhibition = +) | 40 to 60 |  | + (20% to 40% inhibition = +) | 12.1 |  |
| O=C(O)c1ccc(S(=O)(=O)N(Cc2ccccc2)Cc2ccccc2F)cc1 [Example 5-72, 4-(N-benzyl-N-(2-fluorobenzyl)sulfamoyl)benzoic acid] | 20 to 40 | 40 to 60 |  | 20 to 40 | 20 to 40 | > 80 | 20 to 40 | + (20% to 40% inhibition = +) | 20 to 40 | + (20% to 40% inhibition = +) | ++ (40% to 60% inhibition = ++) | 60 to 80 | ++++ (80% or greater inhibition = ++++) | 20 to 40 | + (20% to 40% inhibition = +) | 20 to 40 |  | + (20% to 40% inhibition = +) |  | 40 to 60 |
| O=C(O)c1ccc(S(=O)(=O)N(Cc2ccccc2)Cc2cccc(C(=O)O)c2)cc1 [Example 5-76, 3-((N-benzyl-4-carboxyphenylsulfonamido)methyl)benzoic acid] | 20 to 40 | 20 to 40 |  | 20 to 40 |  |  |  |  |  |  |  | 40 to 60 | ++ (40% to 60% inhibition = ++) |  |  | 20 to 40 |  | + (20% to 40% inhibition = +) |  |  |
